Our source for the IC50 values is patent US20100099681A1, “SUBSTITUTED 5-AMINOPYRAZOLES AND USE THEREOF” (BAYER SCHERING PHARMA AKTIENGESELLSCHAFT, priority 2008, published 2010).

Type in all cases: cell-based
For assay [1], the target named is T1, adenosine receptor subtype A1 (A1-Gα16 fusion construct) (Homo sapiens, UniProt P30542).
T1 construct: expressed in transfected cells; host or cells: CHO K1
T1 sequence (P30542 with tags, fused parts or gaps): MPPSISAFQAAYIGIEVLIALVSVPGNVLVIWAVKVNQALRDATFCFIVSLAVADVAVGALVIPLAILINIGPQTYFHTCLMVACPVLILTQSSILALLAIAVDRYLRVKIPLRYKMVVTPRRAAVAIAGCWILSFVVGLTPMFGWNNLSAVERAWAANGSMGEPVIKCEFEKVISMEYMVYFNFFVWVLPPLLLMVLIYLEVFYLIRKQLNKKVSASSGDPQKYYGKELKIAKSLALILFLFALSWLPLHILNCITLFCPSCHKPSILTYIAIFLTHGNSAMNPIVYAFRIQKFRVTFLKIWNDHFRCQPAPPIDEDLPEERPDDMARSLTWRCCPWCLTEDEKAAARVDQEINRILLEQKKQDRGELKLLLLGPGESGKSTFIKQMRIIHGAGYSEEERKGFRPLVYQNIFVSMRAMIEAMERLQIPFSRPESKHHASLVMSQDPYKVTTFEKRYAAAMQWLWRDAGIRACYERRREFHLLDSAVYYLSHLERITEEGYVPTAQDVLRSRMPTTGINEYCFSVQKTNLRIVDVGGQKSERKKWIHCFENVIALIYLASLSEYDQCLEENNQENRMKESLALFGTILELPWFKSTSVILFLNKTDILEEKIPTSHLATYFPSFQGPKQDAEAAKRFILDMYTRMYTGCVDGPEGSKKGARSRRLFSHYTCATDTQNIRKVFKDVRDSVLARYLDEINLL
Briefly: Indirect determination of adenosine antagonism via gene expression (luciferase reporter), A1. The conditions noted are these: CHO K1 cells, NFAT-TA-Luc reporter, inhibition of luciferase response to agonist 25 nM CPA. On the procedure: For determination of adenosine antagonism on the adenosine receptor subtype A1, once again CHO K1 cells are stably transfected, but this time with a Ca^2+-sensitive reporter construct (NFAT-TA-Luc; Clontech) and an A1-Gα16 fusion construct. This receptor chimera is, in contrast to the native A1 receptor (Gαi-coupling), coupled to phospholipase C. The luciferase is expressed here as a function of the cytosolic Ca^2+ concentration.
(§1) The permanent cell lines are cultured in DMEM/F12-Glutamax (Cat.No. 31331-028; Gibco) with 10% FCS (fetal calf serum) and various additives (10 ml/liter 1M HEPES (Cat.No. 15630; Gibco), 14 ml/liter MEM sodium pyruvate (Cat.No. 11360-039; Gibco) at 37° C. under 5% carbon dioxide, and split twice weekly.
(§2) For testing in the 384-well or 96-well plate format, the cells are sown at 2000 or 5000 cells/well in 25 or 50 μl/well test medium (OptiMEM-Glutamax with 2.5% activated-charcoal-treated FCS, Hyclone) and cultured at 37° C. under 5% carbon dioxide until substance testing. The A2a and A2b cells are sown, 24 h before substance testing, in OptiMEM with 2.5% activated-charcoal-treated FCS (Hyclone). The A1-Gα16 cells are sown, 48 h before substance testing, in OptiMEM-Glutamax with 2.5% activated-charcoal-treated FCS and additives. The substances are pipetted at a final concentration from 1×10^−5 M to 1×10^−11 M to the test cultures, with the DMSO content on the cells not exceeding 0.5%. NECA (5-N-ethyl-carboxamido-adenosine) at a final concentration of 30 nM, which roughly corresponds to the EC50 concentration, is used as agonist for the A2a and A2b cells. 25 nM CPA (N6-cyclopenty adenosine), which roughly corresponds to the EC7-5 concentration, is used as agonist for the A1-Ga16 cells. After adding the substances, the cell plates are incubated for 3-4 h at 37° C. under 5% carbon dioxide. Then 50 μl of a solution consisting to 50% of lysis reagent (Triton buffer, PAA Cat.No. T21-160) and to 50% of luciferase substrate solution (2.5 mM ATP, 0.5 mM luciferin, 0.1 mM coenzyme A, 10 mM Tricin, 1.35 mM magnesium sulfate, 15 mM DTT, pH 7.8) is added to the cells directly before measurement. The luciferase activity is detected with a luminescence reader. The IC50 values are determined, i.e. the concentrations at which the luciferase response, produced by the respective agonist, is inhibited to 50%. The IC50 values are calculated with the computer program GraphPad PRISM (Version 3.02). ZM241385, for the A2a and A2b cells, and DPCPX (1,3-dipropyl-8-cyclopentylxanthine), for the A1-Gα16 cells, are used as reference antagonist.

Assay [2] concerns the target T2, adenosine receptor subtype A2a (Homo sapiens, UniProt P29274).
T2 construct: expressed in transfected cells; host or cells: CHO K1
Briefly: Indirect determination of adenosine antagonism via gene expression (luciferase reporter), A2a. The conditions noted are these: CHO K1 cells, CRE luciferase reporter; inhibition of luciferase response to agonist 30 nM NECA.
Excerpt: (§3) Cells of the permanent line CHO K1 (Chinese Hamster Ovary) are stably transfected with a reporter construct (CRE luciferase) and the cDNA for the adenosine receptor subtypes A2a or A2b. A2a or A2b receptors are coupled via Gαs proteins to adenylate cyclase. Through receptor activation, the adenylate cyclase is activated and therefore the cAMP level in the cell is increased. Via the reporter construct, a cAMP-dependent promoter, the change in the cAMP level is coupled to luciferase expression.
as §1, §2
On the technique in general: Reporter assays use an easily measured gene product as a stand-in for the process of interest.

Assay [3] deals with T3, adenosine receptor subtype A2b (Homo sapiens, UniProt P29275).
T3 construct: expressed in transfected cells; host or cells: CHO K1
T3 sequence (P29275 1-332): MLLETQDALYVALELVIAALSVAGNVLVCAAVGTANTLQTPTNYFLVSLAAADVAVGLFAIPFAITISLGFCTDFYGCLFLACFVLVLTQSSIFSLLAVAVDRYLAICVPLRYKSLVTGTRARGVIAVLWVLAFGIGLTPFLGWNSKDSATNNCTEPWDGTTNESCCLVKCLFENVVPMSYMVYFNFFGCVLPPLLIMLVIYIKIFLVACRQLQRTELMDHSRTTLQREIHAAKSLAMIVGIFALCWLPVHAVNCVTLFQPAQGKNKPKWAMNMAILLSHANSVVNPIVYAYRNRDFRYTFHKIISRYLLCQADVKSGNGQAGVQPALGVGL
Nature of the assay: Indirect determination of adenosine antagonism via gene expression (luciferase reporter), A2b. The following applies: CHO K1 cells, CRE luciferase reporter; inhibition of luciferase response to agonist 30 nM NECA.
Excerpt: as §3, §1, §2

T2 sequence (P29274 whole entry): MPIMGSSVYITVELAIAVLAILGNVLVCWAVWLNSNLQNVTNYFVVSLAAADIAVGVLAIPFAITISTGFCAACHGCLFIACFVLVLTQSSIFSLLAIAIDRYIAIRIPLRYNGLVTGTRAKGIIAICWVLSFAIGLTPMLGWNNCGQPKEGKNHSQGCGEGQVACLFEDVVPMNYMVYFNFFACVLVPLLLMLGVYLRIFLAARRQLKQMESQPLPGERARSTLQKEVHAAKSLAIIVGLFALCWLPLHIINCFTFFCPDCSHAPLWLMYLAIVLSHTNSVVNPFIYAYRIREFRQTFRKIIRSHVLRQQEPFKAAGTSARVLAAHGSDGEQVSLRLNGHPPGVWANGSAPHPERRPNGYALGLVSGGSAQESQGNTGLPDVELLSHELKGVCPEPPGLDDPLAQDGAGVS

What is called IC50 is the concentration needed to halve the response being measured. `Cc1ccccc1-n1nc(C)c(-c2ccc3nccnc3c2)c1Nc1ccc(Cl)cc1C(=O)O` [Example 2, 2-{[4-(Quinoxalin-6-yl)-3-methyl-1-(2-methylphenyl)-1H-pyrazol-5-yl]amino}-5-chlorobenzoic acid]: the half-maximal inhibitory concentration (IC50) in assay [1] is 1 nM; in assay [2], over 10000 nM; in assay [3], over 10000 nM.
Regarding `Cc1ccccc1-n1nc(C(F)(F)F)c(-c2ccc3nccnc3c2)c1Nc1ccc(Cl)cc1C(=O)O` [Example 6, 2-{[4-(Quinoxalin-6-yl)-1-(2-methylphenyl)-3-(trifluoromethyl)-1H-pyrazol-5-yl]amino}-5-chlorobenzoic acid], the IC50 is 9.5 nM in assay [1], over 10000 nM in assay [2] and over 10000 nM in assay [3].
Regarding `COc1ccc(Nc2c(-c3ccc4[nH]ncc4c3)c(C)nn2-c2ccccc2C)c(C(=O)O)c1` [Example 9, 2-{[4-(1H-Indazol-5-yl)-3-methyl-1-(2-methylphenyl)-1H-pyrazol-5-yl]amino}-5-methoxybenzoic acid], the IC50 is 11.2 nM in assay [1], over 10000 nM in assay [2] and over 10000 nM in assay [3].
On to `COc1ccc(Nc2c(-c3ccc4scnc4c3)c(C)nn2-c2ccccc2C)c(C(=O)O)c1` [Example 11, 2-{[4-(1,3-Benzothiazol-5-yl)-3-methyl-1-(2-methylphenyl)-1H-pyrazol-5-yl]amino}-5-methoxybenzoic acid], for which the IC50 was 11.7 nM in assay [1], over 10000 nM in assay [2] and over 10000 nM in assay [3].
Turning to `CCc1ccc(Nc2c(-c3ccc4nccnc4c3)c(C)nn2-c2ccccc2C)c(C(=O)O)c1` [Example 13, 2-{[4-(Quinoxalin-6-yl)-3-methyl-1-(2-methylphenyl)-1H-pyrazol-5-yl]amino}-5-ethylbenzoic acid], the IC50 in assay [1] was 1 nM; in assay [2] it was over 10000 nM; in assay [3], over 10000 nM.
On to `COc1ccc(Nc2c(-c3cc4nccnc4cc3F)c(C)nn2-c2ccccc2C)c(C(=O)O)c1` [Example 16, 2-{[4-(7-Fluoroquinoxalin-6-yl)-3-methyl-1-(2-methylphenyl)-1H-pyrazol-5-yl]amino}-5-methoxybenzoic acid], for which the figures for the IC50 in assay [1], in assay [2] and in assay [3] were 1.6 nM, over 10000 nM and over 10000 nM, respectively.
As for `COc1ccc(Nc2c(-c3ccc4ncnn4c3)c(C)nn2-c2ccccc2C)c(C(=O)O)c1` [Example 20, 5-Methoxy-2-{[3-methyl-1-(2-methylphenyl)-4-([1,2,4]triazolo[1,5-a]pyridin-6-yl)-1H-pyrazol-5-yl]amino}benzoic acid], the results for the concentration for half-maximal inhibition (IC50) in assay [1], in assay [2] and in assay [3] were 1.9 nM, over 10000 nM and over 10000 nM, respectively.
Take `CCOc1ccccc1-n1nc(C)c(-c2ccc3nccnc3c2)c1Nc1ccc(OC)cc1C(=O)O` [Example 22, 2-{[4-(Quinoxalin-6-yl)-1-(2-ethoxyphenyl)-3-methyl-1H-pyrazol-5-yl]amino}-5-methoxybenzoic acid]: the IC50 in assay [1] was 1 nM; in assay [2], over 10000 nM; in assay [3], over 10000 nM.
For `Cc1ccccc1-n1nc(C)c(-c2ccc3cccnc3c2)c1Nc1ccccc1C(=O)O` [Example 27, 2-{[4-(Quinolin-7-yl)-3-methyl-1-(2-methylphenyl)-1H-pyrazol-5-yl]amino}benzoic acid], the IC50 is 99 nM in assay [1], over 10000 nM in assay [2] and over 10000 nM in assay [3].
Compound `Cc1ccccc1-n1nc(C)c(-c2ccc3ncc(N(C)C)nc3c2)c1Nc1ccccc1C(=O)O` [Example 28, 2-({4-[3-(Dimethylamino)quinoxalin-6-yl]-3-methyl-1-(2-methylphenyl)-1H-pyrazol-5-yl}amino)benzoic acid] had a half-maximal inhibitory concentration (IC50) in assay [1] of 19 nM. This lies in the double-digit nanomolar range.
On the same count and under the same terms, under `Cc1ccccc1-n1nc(C)c(-c2cc3nccnc3c(F)c2OCCO)c1Nc1ccccc1C(=O)O` [Example 31, 2-({4-[8-Fluoro-7-(2-hydroxyethoxy)quinoxalin-6-yl]-3-methyl-1-(2-methylphenyl)-1H-pyrazol-5-yl}amino)benzoic acid] stands 42 nM; under `COc1ccnc2ccc(-c3c(C)nn(-c4ccccc4C)c3Nc3ccccc3C(=O)O)cc12` [Example 32, 2-{[4-(4-Methoxyquinolin-6-yl)-3-methyl-1-(2-methylphenyl)-1H-pyrazol-5-yl]amino}benzoic acid], 78 nM.
As to `Cc1ccccc1-n1nc(C)c(-c2cc(F)c3nccnc3c2)c1Nc1ccccc1C(=O)O` [Example 33, 2-{[4-(8-Fluoroquinoxalin-6-yl)-3-methyl-1-(2-methylphenyl)-1H-pyrazol-5-yl]amino}benzoic acid], the IC50 in assay [1] was 0.6 nM; in assay [2], over 10000 nM; in assay [3] it was over 10000 nM.
For the compound `Cc1nn(-c2ccccc2)c(Nc2ccccc2C(=O)O)c1-c1cc2nccnc2c(F)c1F` [Example 36, 2-{[4-(7,8-Difluoroquinoxalin-6-yl)-3-methyl-1-phenyl-1H-pyrazol-5-yl]amino}benzoic acid], the IC50 in assay [1] is 0.7 nM; in assay [2], over 10000 nM; in assay [3], over 10000 nM.
For the compound `Cc1ccccc1-n1nc(C)c(-c2ccn3nc(N)nc3c2)c1Nc1ccccc1C(=O)O` [Example 39, 2-{[4-(2-Amino [1,2,4]triazolo[1,5-a]pyridin-7-yl)-3-methyl-1-(2-methylphenyl)-1H-pyrazol-5-yl]amino}benzoic acid], the results for the concentration for half-maximal inhibition (IC50) in assay [1], in assay [2] and in assay [3] were 1 nM, over 10000 nM and over 10000 nM, respectively.
Take `Cc1ccccc1-n1nc(C)c(-c2cc(F)c3cncnc3c2)c1Nc1ccccc1C(=O)O` [Example 43, 2-{[4-(5-Fluoroquinazolin-7-yl)-3-methyl-1-(2-methylphenyl)-1H-pyrazol-5-yl]amino}benzoic acid]: the values for the half-maximal inhibitory concentration (IC50) in assay [1], in assay [2] and in assay [3] were 23 nM, over 10000 nM and over 10000 nM, respectively.
As for `Cc1nn(-c2ccc(F)cc2F)c(Nc2ccccc2C(=O)O)c1-c1cc(F)c2nccnc2c1` [Example 46, 2-{[1-(2,4-Difluorophenyl)-4-(8-fluoroquinoxalin-6-yl)-3-methyl-1H-pyrazol-5-yl]amino}benzoic acid], the values for the IC50 in assay [1], in assay [2] and in assay [3] were 8.5 nM, over 10000 nM and over 10000 nM, respectively.
